Where “and” joins values, the source holds several entries; their conditions need not be identical. Equal values may be shown once. Read-outs that look alike come from different tables or passages of the source.
Assays:
[1] = target: T1, human JMJD5 (Homo sapiens, UniProt Q8N371); assay: SPE-MS JMJD5 inhibition assay; format: biochemical; conditions: for IC50 JMJD5 / IC50: 2OG 2.0 μM, Fe(II) 2.0 μM, LAA 100 μM, RPS6_128–148 2.0 μM
T1 construct: made in house; host or cells: Escherichia coli BL21(DE3)
Method: Solutions of the small-molecules (100% DMSO) were dry dispensed across 384 well polypropylene V-bottom assay microplates (Greiner) in an approximately three-fold and 11-point dilution series (100 μM inhibitor top concentration; the final DMSO assay concentration was kept constant at 0.5%v/v) using an ECHO 550 acoustic dispenser (Labcyte). […] Each reaction was performed in technical duplicates in adjacent wells of the assay plates; additionally, assays were performed in two independent duplicates on different days using different inhibitor solutions.
The Enzyme Mixture (25 μL per well), containing 0.3 μM His6-thioredoxin-tagged JMJD5 in buffer (50 mM MOPS, pH 7.5), was dispensed across the inhibitor-containing 384-well plates with a multidrop dispenser (ThermoFischer Scientific) at 20 °C under an ambient atmosphere. The plates were subsequently centrifuged (1000 rpm, 5 s) and incubated for 15 min at 20 °C. […] The plates were centrifuged (1000 rpm, 5 s) and, after incubating for 30 min, the enzyme reaction was stopped by the addition of 10%v/v aqueous formic acid (5 μL per well). The plates were then centrifuged (1000 rpm, 30 s) and analyzed by MS.
Z′-Factors were calculated according to the cited literature using Microsoft Excel.[61]

[2] = target: T1, human JMJD5; assay: SPE-MS JMJD5 turnover and kinetic assay (RPS6_128–148 hydroxylation); format: biochemical; conditions: for JMJD5 (%): RPS6_128–148 hydroxylation with the compound as cosubstrate: absence of 2OG, JMJD5 0.15 μM, 2OG derivative 400 μM, Fe(II) 20 μM, RPS6_128–148 2.0 μM
Method: JMJD5 turnover assays for time course and kinetic experiments were performed in 96-well polypropylene assay plates (Greiner) with either […] total reaction volume using the concentrations given in the manuscript or ESI, ^† and JMJD5-catalysed substrate hydroxylation was directly monitored using SPE-MS. […] Assay samples were aspirated under vacuum for 0.6 s and loaded onto a C4 solid phase extraction (SPE) cartridge. After loading, the C4 SPE cartridge was washed with 0.1%v/v aqueous formic acid to remove non-volatile buffer salts (5.5 s, 1.5 mL min^−1). The peptide was eluted from the SPE cartridge with 0.1%v/v aqueous formic acid in 80/20v/v acetonitrile/water into the mass spectrometer (5.5 s, 1.5 mL min^−1) and the SPE cartridge re-equilibrated with 0.1%v/v aqueous formic acid (0.5 s, 1.5 mL min^−1). The mass spectrometer was operated using the MassHunter Workstation B.08.00 software (Agilent), the mass spectrometer parameters were: capillary voltage (4000 V), nozzle voltage (1000 V), fragmentor voltage (365 V), gas temperature (280 °C), gas flow (13 L min^−1), sheath gas temperature (350 °C), sheath gas flow (12 L min^−1). […] Data were exported into Microsoft Excel and used to calculate the % conversion of the hydroxylation reaction using the equation: % conversion = 100 × (integral product peptide)/(integral substrate peptide + integral product peptide).
parameters (continues on the following two pages). Maximum velocities (vapp ) and Michaelis constants (Kapp)
of JMJD5 were determined in independent triplicates, monitoring the JMJD5-catalyzed hydroxylation of the
SPE-MS, as described (Experimental Section).
20 °C). Measurement times were normalized to the first sample injection analyzed after the addition of JMJD5 to
shown as the mean of three independent runs (n = 3; mean ± standard deviation, SD).
hexahydrate (20 μM, (NH4)2Fe(SO4)2·6H2O); and (b) hydroxylation rates used to determine kinetic parameters of
(1 picture or pasted object on this page, not shown here)
Maximum velocities (vapp ) and
Michaelis constants (Kapp) of JMJD5 were determined in independent triplicates for (1R)-3-
(carboxycarbonyl)cyclopentane-1-carboxylic acid (14), monitoring the JMJD5-catalyzed hydroxylation of the
as described (Experimental Section).
pH 7.5, 20 °C). Measurement times were normalized to the first sample injection analyzed after the addition of
(§1) Data are shown as the mean of three independent runs (n = 3; mean ± SD).
to determine kinetic parameters of JMJD5 for 14.

[3] = target: T2, human KDM4E (Homo sapiens, UniProt B2RXH2); assay: KDM4E SPE-MS inhibition assay; format: biochemical; conditions: KDM4E 0.15 μM, peptide 10.0 μM, LAA 100 μM, FAS 10 μM, 2OG 10 μM
T2 sequence (B2RXH2 1-506): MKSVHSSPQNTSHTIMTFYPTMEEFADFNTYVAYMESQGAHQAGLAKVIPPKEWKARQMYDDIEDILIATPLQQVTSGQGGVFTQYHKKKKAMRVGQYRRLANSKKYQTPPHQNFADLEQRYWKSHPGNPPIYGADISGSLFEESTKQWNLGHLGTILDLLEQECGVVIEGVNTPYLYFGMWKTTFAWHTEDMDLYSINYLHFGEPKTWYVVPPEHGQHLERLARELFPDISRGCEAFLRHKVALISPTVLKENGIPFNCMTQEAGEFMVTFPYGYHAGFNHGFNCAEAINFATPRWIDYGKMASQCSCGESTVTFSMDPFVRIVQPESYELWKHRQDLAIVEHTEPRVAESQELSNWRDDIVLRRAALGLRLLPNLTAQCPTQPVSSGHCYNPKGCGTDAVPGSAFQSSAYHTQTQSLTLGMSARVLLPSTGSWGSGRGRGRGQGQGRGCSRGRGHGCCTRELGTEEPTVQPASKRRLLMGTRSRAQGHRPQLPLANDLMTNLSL
Method: KDM4E turnover and inhibition assays were performed as reported using recombinant human KDM4E and a histone 3 K9(me3) derivative (i.e. […](me3)STGGIA)[41] as substrate.[95] […]

[4] = target: T2, human KDM4E; assay: KDM4E SPE-MS turnover and kinetic assay (H3 K9(me3) peptide demethylation); format: biochemical; conditions: absence of 2OG; KDM4E 0.15 μM, 2OG derivative 330 μM, Fe(II) 50 μM, ARTAQTARK(me3)STGGIA 10.0 μM
Method: KDM4E turnover and inhibition assays were performed as reported using recombinant human KDM4E and a histone 3 K9(me3) derivative (i.e. […](me3)STGGIA)[41] as substrate.[95]
Supplementary Figure S3. Rates of KDM4E-catalyzed Nε-trimethyl lysine demethylations of a histone 3- […]
Maximum velocities (vapp ) and Michaelis […]
catalyzed Nε-trimethyl lysine demethylation of the histone 3 K9(me3)-derived peptide […]
(me3)STGGIA2 by SPE-MS as described;3 note that mono-, di-, and tri-demethylated product […]
buffer (50 mM MES, pH 7.0, 20 °C). Measurement times were normalized to the first sample injection analyzed […]
as §1
(a) Time course of the KDM4E-catalyzed Nε-trimethyl lysine demethylation reaction of the […]

[5] = system: human FIH; conditions: absence of 2OG; FIH 0.15 μM, 2OG derivative 330 μM, Fe(II) 50 μM, HIF-1α788–822 5.0 μM; cited from earlier work
[6] = system: human AspH; conditions: absence of 2OG; AspH 0.1 μM, 2OG derivative 330 μM, Fe(II) 50 μM, hFX-CP101–119 2.0 μM; cited from earlier work
[7] = JMJD5 0.15 μM, read-out: IC50 JMJD5

T1 sequence (Q8N371 whole entry): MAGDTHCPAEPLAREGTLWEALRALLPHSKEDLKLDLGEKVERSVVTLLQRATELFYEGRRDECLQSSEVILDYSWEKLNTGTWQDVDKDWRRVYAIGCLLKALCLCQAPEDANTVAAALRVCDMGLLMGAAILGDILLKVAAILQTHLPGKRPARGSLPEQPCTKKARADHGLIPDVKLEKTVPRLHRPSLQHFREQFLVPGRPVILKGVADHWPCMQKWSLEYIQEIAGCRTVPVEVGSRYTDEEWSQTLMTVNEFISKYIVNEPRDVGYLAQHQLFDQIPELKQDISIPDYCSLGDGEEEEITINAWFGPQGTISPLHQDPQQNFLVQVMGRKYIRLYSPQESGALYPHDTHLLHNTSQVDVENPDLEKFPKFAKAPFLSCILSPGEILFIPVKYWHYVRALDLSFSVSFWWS

Compound | IC50 [1, 7] [µM] | JMJD5 (%): RPS6_128–148 hydroxylation with the compound as cosubstrate [2] | KDM4E (%): substrate demethylation with the compound as cosubstrate [4] | FIH (%): substrate hydroxylation with the compound as cosubstrate [5] | AspH (%): substrate hydroxylation with the compound as cosubstrate [6] [%] | other results
O=C(O)C(=O)N[C@H](Cc1ccccc1)C(=O)O [NOFD, N-Oxalyl-D-phenylalanine, reference compound] |  |  |  |  |  | IC50 JMJD5 ([1]; JMJD5 0.15 μM): does not inhibit JMJD5 in the concentration range tested
CC(CC(=O)C(=O)O)C(=O)O (stereo not shown) [Entry 8] |  | < 1% | < 1% | < 1% | < 1 | JMJD5-catalyzed RPS6_128–148 hydroxylation, time course ([2]; after 50 min, 10 μM cosubstrate, 0.15 μM JMJD5, 10 μM Fe(II), 2.0 μM RPS6_128–148): ~30%; IC50 [3]: 6 to 7 µM and ~6.6 µM
Cc1nc(C(=O)NCC(=O)O)c(O)c2ccc(Oc3ccccc3)cc12 [roxadustat, reference compound] |  |  |  |  |  | IC50 JMJD5 ([1]; JMJD5 0.15 μM): does not inhibit JMJD5 at substantial levels
3-(4-methoxybenzyl)-2OG [2OG derivative 6] | > 50 | ~ 10% | ~ 5% | < 1% | < 1 | IC50 [3]: > 50 µM
O=c1c(-n2ccnn2)c[nH]n1-c1cc(N2CCOCC2)ncn1 [C00039, reference compound] | 29.5 ± 1.6 |  |  |  |  | 
CN(C)NC(=O)CCC(=O)O [daminozide, reference compound] |  |  |  |  |  | IC50 ([1]; IC50 JMJD5, JMJD5 0.15 μM): > 100 µM
3-ethyl-2OG [2OG derivative 2] | > 20 | < 1% | < 1% | ~ 2% | < 1 | IC50 [3]: > 50 µM
O=C(O)CNC(=O)c1c(O)c2ccccc2n(OCC2CC2)c1=O [C00037, reference compound] |  |  |  |  |  | IC50 ([1]; IC50 JMJD5, JMJD5 0.15 μM): 37.2 ± 6 µM
3-(9,9-dimethyl-9H-fluoren-2-yl)methyl-2OG [2OG derivative 7] | > 50 | < 1% | < 1% | < 1% | < 1 | 
O=C(O)c1ccc(O)c2ncccc12 [C00029] |  |  |  |  |  | IC50 ([1]; IC50 JMJD5, JMJD5 0.15 μM): 2.6 ± 0.1 µM
4-propyl-2OG [2OG derivative 11] | > 50 | ~ 10% | < 1% | ~ 5% | < 1 | IC50 [3]: > 50 µM
O=C(O)CNC(=O)C(=O)O [NOG, N-oxalylglycine, reference compound] | ~0.2 |  |  |  |  | 
CN(C)CCCNC(=O)c1ccc(-c2cc(O)c3ncccc3c2)cc1 [C00034] | 3 ± 0.5 |  |  |  |  | 
O=C(O)CC(CCCc1ccccc1)C(=O)C(=O)O (stereo not shown) [C00009] |  | <1% | ∼2% | <1% | <1 | 
CCC(CC(=O)O)C(=O)C(=O)O (stereo not shown) [C00005] |  | <1% | <1% | ∼2% | <1 | 
CN(C)CCCNC(=O)c1ccc(-c2cc(O)c3ncccc3c2)cc1 [ML324, reference compound] |  |  |  |  |  | Hill coefficient of the JMJD5 inhibition curve [1]: ≥ 2
CCCC(CC(=O)O)C(=O)C(=O)O (stereo not shown) [C00007] |  | <1% | <1% | <1% | <1 | 
O=C(O)C(=O)c1cscc1C(=O)O [Entry 34] |  | < 1% | < 1% | < 1% | < 1 | 
CC1(C)c2ccccc2-c2ccc(CC(CC(=O)O)C(=O)C(=O)O)cc21 (stereo not shown) [Entry 7] |  | < 1% | < 1% | < 1% | < 1 | IC50 [3]: 6 to 7 µM and ~6.1 µM
O=C(O)CNC(=O)C(=O)O [C00025] | 0.15 ± 0.02 |  |  |  |  | 

Second part, led by results:

IC50 [1, 7] [µM] | Compound | JMJD5 (%): RPS6_128–148 hydroxylation with the compound as cosubstrate [2] | KDM4E (%): substrate demethylation with the compound as cosubstrate [4] | FIH (%): substrate hydroxylation with the compound as cosubstrate [5] | AspH (%): substrate hydroxylation with the compound as cosubstrate [6] [%] | other results
17.8 ± 5.6 | O=C(O)CNC(=O)c1c(O)c2ccccc2n(Cc2ccccc2)c1=O [C00035, reference compound] |  |  |  |  | 
~0.7 | O=c1c2ccccc2[se]n1-c1ccccc1 [ebselen, reference compound] |  |  |  |  | Hill coefficient of the JMJD5 inhibition curve [1]: ≥ 2
> 100 | O=C(O)C(=O)N[C@H](Cc1ccccc1)C(=O)O [C00030] |  |  |  |  | 
0.69 ± 0.15 | O=c1c2ccccc2[se]n1-c1ccccc1 [C00031] |  |  |  |  | 
~4.4 | O=C(O)CCNc1cc(N2CCc3ccccc3CC2)nc(-c2ccccn2)n1 [GSK-J1, reference compound] |  |  |  |  | 
4.4 ± 0.5 | O=C(O)CCNc1cc(N2CCc3ccccc3CC2)nc(-c2ccccn2)n1 [C00036] |  |  |  |  | 

Reference: PMC10246557, “Kinetic and inhibition studies on human Jumonji-C (JmjC) domain-containing protein 5” (RSC Chemical Biology, 2023)
